Columns and labels:
[1] = Pharmacokinetic evaluation in cynomolgus monkeys; type: in vivo; settings: cynomolgus monkey, plasma, 0.02 mg/kg, single SC 0.02 mpk; for half-life: read-out: Half-life T1/2 (converted); for AUC(0-t): read-out: Integral of the SC concentration AUC0-240 h; for Cmax: read-out: Maximum plasma concentration
Experimental: Pharmacokinetics of the compound in cynomolgus monkeys were assayed.
The pharmacokinetic characteristics of the compound in mammals after a subcutaneous injection were assayed using the standard protocol. In the assay, the candidate compound was formulated into a clear solution and given to cynomolgus monkeys by a single subcutaneous injection (SC, 0.02 mpk). The solvent of the subcutaneous injection was citrate buffer (20 mM, pH=7). Whole blood was collected, and plasma was prepared. Drug concentration was analyzed by LC-MS/MS method, and pharmacokinetic parameters were calculated using Phoenix WinNonlin software.

[2] = target: T1, GIPR (Homo sapiens, UniProt P48546); assay: In vitro agonistic activity on GIPR (cAMP assay); type: cell-based; settings: CHO cell line; for Agonistic activity on GIPR Max Activity (%): Max Dose 20 nM
T1 construct: host or cells: CHO
T1 sequence (P48546 22-466): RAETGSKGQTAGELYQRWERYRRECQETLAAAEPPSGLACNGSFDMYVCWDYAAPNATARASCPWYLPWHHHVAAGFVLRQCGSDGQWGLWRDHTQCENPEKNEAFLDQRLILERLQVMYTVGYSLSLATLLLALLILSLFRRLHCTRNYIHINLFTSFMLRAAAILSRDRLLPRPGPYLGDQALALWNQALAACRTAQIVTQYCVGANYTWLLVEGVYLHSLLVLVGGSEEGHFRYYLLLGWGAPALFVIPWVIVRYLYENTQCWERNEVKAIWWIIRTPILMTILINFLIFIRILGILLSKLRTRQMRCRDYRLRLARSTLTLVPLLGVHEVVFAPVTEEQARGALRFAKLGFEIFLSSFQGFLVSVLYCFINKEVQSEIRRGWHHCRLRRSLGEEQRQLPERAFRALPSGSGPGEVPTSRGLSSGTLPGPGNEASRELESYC
Experimental: The cell lines were constructed by Shanghai WuXi AppTec.
The compounds to be assayed were serially diluted 4-fold with Bravo to obtain 10 concentrations, with a starting concentration of 30 μM.
1) 100 nL of the compound was transferred to an OptiPlate-384 plate using Echo.
2) The OptiPlate-384 plate was centrifuged at 1000 rpm for 5 seconds.
1) A GLP-1R/GIPR/GCGR cell cryopreservation tube was quickly placed in warm water at 37° C. to thaw.
2) The cell suspension was transferred to a 15 mL centrifuge tube, and gently washed with 10 ml of HBSS.
3) The centrifuge tube was centrifuged at 1000 rpm at room temperature for 1 minute.
4) The supernatant was discarded.
5) The cells at the bottom were gently dispersed and gently washed with 10 ml of HBSS. The cells were centrifuged and sedimented, and finally resuspended with the assay buffer.
6) Vi-cell was used to measure the cell density and viability.
7) The concentration of GLP-1R/GIPR/GCGR cells was diluted to 2.0*105/mL with the assay buffer.
8) […] of the diluted cell suspension was transferred to the OptiPlate-384 plate.
9) The plate was incubated at room temperature for 30 minutes.
1) 10 μL of 800 nM gradient diluted cAMP standard was added into an empty well of the OptiPlate-384 plate.
2) 10 μL of cAMP assay reagent was added.
3) The OptiPlate-384 plate was covered with a TopSeal-A film and incubated at room temperature for 60 minutes.
The TopSeal-A was peeled off and the plate was read on the EnVision.

[3] = Plasma stability assay (PLS), human; type: in vitro ADME; settings: pH 7.4, 37° C., read-out: PLS (human) T1/2
[4] = Plasma stability assay (PLS), mouse; type: in vitro ADME; settings: pH 7.4, 37° C., read-out: PLS (mouse) T1/2
Experimental: Stability of the assay compound in normal mouse plasma was studied.
1. Before the assay, the coagulated frozen plasma was thawed in a 37° C. water bath. The plasma was centrifuged at 4000 rpm for 5 minutes. If there were blood clots, the blood clots were removed. The pH value was adjusted to 7.4±0.1.
2. Preparation of assay compound solution: An assay compound was dissolved in DMSO to prepare a 100 μM solution.
3. 98 μL of blank control plasma was added to 2 μL of the assay compound solution (100 μM), so that the final concentration of the mixed solution reached 2 μM. The mixed solution was incubated in a 37° C. water bath.
4. 100 μL of H3PO4 solution and 800 μL of stop solution (a solution of 200 ng/ml tolbutamide and 200 ng/ml labetalol in 100% methanol) were added at each time point (0, 10, 30, 60 and 120 min), respectively, to precipitate proteins, and mixed thoroughly.
5. The sample was centrifuged at 4000 rpm for 20 min. 100 μL of supernatant from each well was taken for LC-MS/MS analysis.

[5] = system: STZ-NASH mouse model; assay: In vivo drug efficacy in STZ-NASH mouse model; design: species or system C57BL/6 mice; settings: STZ-NASH mice, 20 nmol/kg SC every two days, 5 weeks, endpoint
Experimental: Drug efficacy of the assay substance in the NASH model induced by streptozotocin (STZ)+high-fat diet (HFD) in C57BL/6 mice was verified.
Modeling method: Newborn mice were subcutaneously injected with STZ (200 μg/mouse) within 48 hours after birth. After 4 weeks of breastfeeding, animals with a fasting blood glucose level of >12 mmol/L were selected and subjected to a HFD feeding for 6 consecutive weeks to finally establish the NASH model. Another 8 animals were selected without STZ injection and HFD feeding (normal control group).
Administration scheme: Administration was started after one week of HFD feeding, and the first day of administration was set as Day 1. Then, the mice were subcutaneously injected every two days for 5 consecutive weeks.
Detection at the endpoint of the assay: Pathological hematoxylin-eosin staining and picro sirius red staining were performed.

Row | Compound | Tmax [1] | half-life [1] | AUC(0-t) [1] | Cmax [1] | EC50 [2] | Agonistic activity on GIPR Max Activity (%) [2] | half-life at 2 μM [3] | half-life at 2 μM [4] | Ballooning score [5] | Fibrosis (%) [5] | Inflammation score [5] | NAS score [5] | Steatosis score [5]
1 | CC(C)C[C@H](NC(=O)[C@H](CC(C)C)NC(=O)[C@H](Cc1c[nH]c2ccccc12)NC(=O)[C@@H]1CCCCNC(=O)CN(C(=O)COCCOCCNC(=O)COCCOCCNC(=O)CC[C@H](NC(=O)CCCCCCCCCCCCCCCCCCC(=O)O)C(=O)O)CC(=O)NCCCC[C@H](NC(=O)[C@H](C)NC(=O)[C@H](CCCCN)NC(=O)[C@H](CCCCN)NC(=O)[C@H](CCC(=O)O)NC(=O)[C@H](CC(=O)O)NC(=O)[C@H](CC(C)C)NC(=O)[C@H](Cc2ccc(O)cc2)NC(=O)[C@H](CCCCN)NC(=O)[C@H](CO)NC(=O)[C@H](Cc2ccc(O)cc2)NC(=O)[C@H](CC(=O)O)NC(=O)[C@H](CO)NC(=O)[C@@H](NC(=O)[C@H](Cc2ccccc2)NC(=O)[C@@H](NC(=O)CNC(=O)[C@H](CCC(N)=O)NC(=O)C(C)(C)NC(=O)[C@@H](N)Cc2c[nH]cn2)[C@@H](C)O)[C@@H](C)O)C(=O)N[C@@H](CCC(=O)O)C(=O)N[C@@H](Cc2ccccc2)C(=O)N[C@@H](C(C)C)C(=O)N1)C(=O)N[C@@H](CCC(=O)O)C(=O)NCC(=O)NCC(=O)N1CCC[C@H]1C(=O)N[C@@H](CO)C(=O)N[C@@H](CO)C(=O)NCC(N)=O [WX004] | 32 h | 67 h | 5.72 µM·h | 0.048 µM | > 0.02 µM | 4.12% |  |  |  |  |  |  | 
2 | CC(C)C[C@H](NC(=O)[C@H](CC(C)C)NC(=O)[C@H](Cc1c[nH]c2ccccc12)NC(=O)[C@H](CCC(=O)O)NC(=O)[C@@H](NC(=O)[C@H](Cc1ccccc1)NC(=O)[C@H](CCC(=O)O)NC(=O)[C@@H]1CCCCNC(=O)CN(C(=O)COCCOCCNC(=O)COCCOCCNC(=O)CC[C@H](NC(=O)CCCCCCCCCCCCCCCCCCC(=O)O)C(=O)O)CC(=O)NCCCC[C@H](NC(=O)[C@H](CCC(=O)O)NC(=O)[C@H](CC(=O)O)NC(=O)[C@H](CC(C)C)NC(=O)[C@H](Cc2ccc(O)cc2)NC(=O)[C@H](CCCCN)NC(=O)[C@H](CO)NC(=O)[C@H](Cc2ccc(O)cc2)NC(=O)[C@H](CC(=O)O)NC(=O)[C@H](CO)NC(=O)[C@@H](NC(=O)[C@H](Cc2ccccc2)NC(=O)[C@@H](NC(=O)CNC(=O)[C@H](CCC(N)=O)NC(=O)C(C)(C)NC(=O)[C@@H](N)Cc2c[nH]cn2)[C@@H](C)O)[C@@H](C)O)C(=O)N[C@@H](CCCCN)C(=O)N[C@@H](C)C(=O)N1)C(C)C)C(=O)N[C@@H](CCC(=O)O)C(=O)NCC(=O)NCC(=O)N1CCC[C@H]1C(=O)N[C@@H](CO)C(=O)N[C@@H](CO)C(=O)NCC(N)=O [WX001] | 24 h | 93 h | 5.51 µM·h | 0.043 µM | > 0.02 µM | 2.26% | > 4.82 h | > 4.82 h | 0 | 1.21% | 1.63 | 2.63 | 1.0
